Here are results for 5 molecules from ChEMBL document CHEMBL1148150, “New cytotoxic furanosesterterpenes from an Okinawan marine sponge, Ircinia sp” (J Nat Prod, 2003).

For the assay, the system named is KB. As to the kind of experiment: Cytotoxicity against human KB cells. It counts as functional, cell-based.
A word on the IC50: it is the concentration needed to halve the response being measured. High values mean weaker potency, low ones greater potency. `C/C(=C/C=C/[C@]1(C)CCCc2ccoc21)CCC[C@H](C)CC(=O)[C@H](O)[C@H](C)Cl` registered an IC50 of less than 1 µg/mL. To `CCC(O)C(=O)C[C@@H](C)CCC/C(C)=C\C=C\[C@]1(C)CCCc2ccoc21` (stereo not given in full) belongs less than 1 µg/mL. Molecule `CC1=C(O)/C(=C/[C@@H](C)CCC/C(C)=C/C=C/[C@]2(C)CCCc3ccoc32)OC1=O` had an IC50 not below 1 µg/mL. To `C/C(=C/C=C/[C@]1(C)CCCc2ccoc21)CCC[C@H](C)CC(=O)[C@@H](O)[C@H](C)Cl` belongs less than 1 µg/mL; to `CC1=C(O)/C(=C/[C@@H](C)CCC/C(C)=C\C=C\[C@]2(C)CCCc3ccoc32)OC1=O`, not below 1 µg/mL.
